Results reported in ChEMBL document CHEMBL1201862, “PubChem BioAssay data set” (2004).
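Step 1: Grow cells in 96-well plates. Step 2: Expose to compound for 48 hours at 5 concentrations. Step 3: Interpolate endpoints linearly; if unreached, use highest concentration. GI50 marks 50% less growth.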 Calls of active or inactive are those of the source. No stated cut-off is given here; in the data, active = GI50 up to about 1.1 µM and inactive = higher.

How the values were obtained:
Test in all cases: inhibition of tumour cell growth, NCI panel, 48 h
TK-10 = test system: TK-10
DU-145 = test system: DU-145
MDA-MB-435 = test system: MDA-MB-435
HT-29 = test system: HT-29
RXF 393 = test system: RXF 393
A498 = test system: A498
HOP-62 = test system: HOP-62
CAKI-1 = test system: CAKI-1
SF-539 = test system: SF-539
ACHN = test system: ACHN
NCI-H226 = test system: NCI-H226
K562 = test system: K562
SF-295 = test system: SF-295
SK-MEL-5 = test system: SK-MEL-5
HCT-116 = test system: HCT-116
UACC-62 = test system: UACC-62
SK-MEL-28 = test system: SK-MEL-28
OVCAR-4 = test system: OVCAR-4
EKVX = test system: EKVX
UACC-257 = test system: UACC-257
UO-31 = test system: UO-31
RPMI-8226 = test system: RPMI-8226
BT-549 = test system: BT-549
OVCAR-8 = test system: OVCAR-8
SNB-19 = test system: SNB-19
SN12C = test system: SN12C
PC-3 = test system: PC-3
NCI/ADR-RES = test system: NCI/ADR-RES
KM12 = test system: KM12
HCT-15 = test system: HCT-15
MDA-N = test system: MDA-N
U-251 = test system: U-251
MCF7 = test system: MCF7
NCI-H23 = test system: NCI-H23
OVCAR-3 = test system: OVCAR-3
NCI-H460 = test system: NCI-H460
SK-OV-3 = test system: SK-OV-3
SF-268 = test system: SF-268
MDA-MB-231 = test system: MDA-MB-231
A549 = test system: A549
IGROV-1 = test system: IGROV-1
M14 = test system: M14
NCI-H522 = test system: NCI-H522
SK-MEL-2 = test system: SK-MEL-2
HCC 2998 = test system: HCC 2998
SR = test system: SR
MOLT-4 = test system: MOLT-4
COLO 205 = test system: COLO 205
HOP-92 = test system: HOP-92
T47D = test system: T47D
CCRF-CEM = test system: CCRF-CEM
Malme-3M = test system: Malme-3M
786-0 = test system: 786-0
HL-60 = test system: HL-60
OVCAR-5 = test system: OVCAR-5
SW-620 = test system: SW-620
LOX IMVI = test system: LOX IMVI
SNB-75 = test system: SNB-75

SMILES: CC1(CO)OC(n2cnc3cncnc32)CC1O (stereo unspecified)
- GI50 (TK-10): > 100 µM (inactive)
- GI50 (DU-145): > 100 µM (inactive)
- GI50 (MDA-MB-435): > 100 µM (inactive)
- GI50 (HT-29): > 100 µM (inactive)
- GI50 (RXF 393): > 100 µM (inactive)
- GI50 (A498): > 100 µM (inactive)
- GI50 (HOP-62): > 100 µM (inactive)
- GI50 (CAKI-1): > 100 µM (inactive)
- GI50 (SF-539): > 100 µM (inactive)
- GI50 (ACHN): > 100 µM (inactive)
- GI50 (NCI-H226): > 100 µM (inactive)
- GI50 (K562): > 100 µM (inactive)
- GI50 (SF-295): > 100 µM (inactive)
- GI50 (SK-MEL-5): > 100 µM (inactive)
- GI50 (HCT-116): > 100 µM (inactive)
- GI50 (UACC-62): > 100 µM (inactive)
- GI50 (SK-MEL-28): > 100 µM (inactive)
- GI50 (OVCAR-4): > 100 µM (inactive)
- GI50 (EKVX): > 100 µM (inactive)
- GI50 (UACC-257): > 100 µM (inactive)
- GI50 (UO-31): > 100 µM (inactive)
- GI50 (RPMI-8226): > 100 µM (inactive)
- GI50 (BT-549): > 100 µM (inactive)
- GI50 (OVCAR-8): > 100 µM (inactive)
- GI50 (SNB-19): > 100 µM (inactive)
- GI50 (SN12C): > 100 µM (inactive)
- GI50 (PC-3): > 100 µM (inactive)
- GI50 (NCI/ADR-RES): > 100 µM (inactive)
- GI50 (KM12): > 100 µM (inactive)
- GI50 (HCT-15): > 100 µM
- GI50 (MDA-N): > 100 µM (inactive)
- GI50 (U-251): > 100 µM (inactive)
- GI50 (MCF7): > 100 µM (inactive)
- GI50 (NCI-H23): > 100 µM (inactive)
- GI50 (OVCAR-3): > 100 µM (inactive)
- GI50 (NCI-H460): > 100 µM (inactive)
- GI50 (SK-OV-3): > 100 µM (inactive)
- GI50 (SF-268): > 100 µM (inactive)
- GI50 (MDA-MB-231): > 100 µM (inactive)
- GI50 (A549): > 100 µM (inactive)
- GI50 (IGROV-1): > 100 µM (inactive)
- GI50 (M14): > 100 µM (inactive)
- GI50 (NCI-H522): > 100 µM (inactive)
- GI50 (SK-MEL-2): > 100 µM (inactive)
- GI50 (HCC 2998): > 100 µM (inactive)
- GI50 (SR): > 100 µM (inactive)
- GI50 (MOLT-4): > 100 µM (inactive)
- GI50 (COLO 205): > 100 µM (inactive)
- GI50 (HOP-92): > 100 µM (inactive)
- GI50 (T47D): > 100 µM (inactive)
- GI50 (CCRF-CEM): > 100 µM (inactive)
- GI50 (Malme-3M): > 100 µM (inactive)
- GI50 (786-0): > 100 µM (inactive)
- GI50 (HL-60): > 100 µM (inactive)
- GI50 (OVCAR-5): > 100 µM (inactive)
- GI50 (SW-620): > 100 µM (inactive)

SMILES: O=C1NC2NC3NC(=O)NC3NC2N1 (stereo unspecified)
- GI50 (DU-145): > 100 µM (inactive)
- GI50 (MDA-MB-435): > 100 µM (inactive)
- GI50 (HT-29): > 100 µM (inactive)
- GI50 (RXF 393): > 100 µM (inactive)
- GI50 (A498): > 100 µM (inactive)
- GI50 (HOP-62): > 100 µM (inactive)
- GI50 (CAKI-1): > 100 µM (inactive)
- GI50 (SF-539): > 100 µM (inactive)
- GI50 (ACHN): > 100 µM (inactive)
- GI50 (NCI-H226): > 100 µM (inactive)
- GI50 (K562): > 100 µM (inactive)
- GI50 (SF-295): > 100 µM (inactive)
- GI50 (SK-MEL-5): > 100 µM (inactive)
- GI50 (HCT-116): > 100 µM (inactive)
- GI50 (UACC-62): > 100 µM (inactive)
- GI50 (SK-MEL-28): > 100 µM (inactive)
- GI50 (EKVX): > 100 µM (inactive)
- GI50 (UACC-257): > 100 µM (inactive)
- GI50 (UO-31): > 100 µM (inactive)
- GI50 (RPMI-8226): > 100 µM (inactive)
- GI50 (BT-549): > 100 µM (inactive)
- GI50 (OVCAR-8): > 100 µM (inactive)
- GI50 (SNB-19): > 100 µM (inactive)
- GI50 (LOX IMVI): > 100 µM (inactive)
- GI50 (SN12C): > 100 µM (inactive)
- GI50 (PC-3): > 100 µM (inactive)
- GI50 (NCI/ADR-RES): > 100 µM (inactive)
- GI50 (KM12): > 100 µM (inactive)
- GI50 (MDA-N): > 100 µM (inactive)
- GI50 (U-251): > 100 µM (inactive)
- GI50 (MCF7): > 100 µM (inactive)
- GI50 (NCI-H23): > 100 µM (inactive)
- GI50 (OVCAR-3): > 100 µM (inactive)
- GI50 (SNB-75): 76.4 µM (inactive)
- GI50 (MDA-MB-231): > 100 µM (inactive)
- GI50 (A549): > 100 µM (inactive)
- GI50 (IGROV-1): > 100 µM (inactive)
- GI50 (M14): > 100 µM (inactive)
- GI50 (NCI-H522): > 100 µM (inactive)
- GI50 (SK-MEL-2): > 100 µM (inactive)
- GI50 (SR): > 100 µM (inactive)
- GI50 (MOLT-4): > 100 µM (inactive)
- GI50 (COLO 205): > 100 µM (inactive)
- GI50 (HOP-92): > 100 µM (inactive)
- GI50 (CCRF-CEM): > 100 µM (inactive)
- GI50 (Malme-3M): > 100 µM (inactive)
- GI50 (786-0): > 100 µM (inactive)
- GI50 (HL-60): > 100 µM (inactive)
- GI50 (OVCAR-5): > 100 µM (inactive)
- GI50 (SW-620): > 100 µM (inactive)
